In PubChem BioAssay (NCI):
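Grown in 96-well plates, cells were treated for 48 hours with each compound at five concentrations. Insufficient inhibition: endpoint recorded as highest concentration tested. At the GI50, growth is halved. TGI is the concentration that stops growth completely.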

Tests used:
Assay in all cases: inhibition of tumour cell growth, NCI panel, 48 h
CAKI-1 renal = test system: CAKI-1 renal
NCI-H23 lung = test system: NCI-H23 lung
SF-268 CNS = test system: SF-268 CNS
U251 CNS = test system: U251 CNS
SF-539 CNS = test system: SF-539 CNS
OVCAR-8 ovarian = test system: OVCAR-8 ovarian
SK-MEL-28 melanoma = test system: SK-MEL-28 melanoma
OVCAR-5 ovarian = test system: OVCAR-5 ovarian
MCF7 breast = test system: MCF7 breast
OVCAR-4 ovarian = test system: OVCAR-4 ovarian
UACC-62 melanoma = test system: UACC-62 melanoma
MDA-MB-468 breast = test system: MDA-MB-468 breast
HOP-92 NSCLC = test system: HOP-92 NSCLC
HS 578T breast = test system: HS 578T breast
T-47D breast = test system: T-47D breast
A498 renal = test system: A498 renal
EKVX NSCLC = test system: EKVX NSCLC
HCT-15 colon = test system: HCT-15 colon
HCT-116 colon = test system: HCT-116 colon
MOLT-4 leukemia = test system: MOLT-4 leukemia
SF-295 CNS = test system: SF-295 CNS
A549 NSCLC = test system: A549 NSCLC
SR leukemia = test system: SR leukemia
SN12C renal = test system: SN12C renal
NCI-H522 lung = test system: NCI-H522 lung
SK-OV-3 ovarian = test system: SK-OV-3 ovarian
HL-60(TB) leukemia = test system: HL-60(TB) leukemia
OVCAR-3 ovarian = test system: OVCAR-3 ovarian
LOX IMVI melanoma = test system: LOX IMVI melanoma
TK-10 renal = test system: TK-10 renal
RPMI-8226 leukemia = test system: RPMI-8226 leukemia
HCC-2998 colon = test system: HCC-2998 colon
786-0 renal = test system: 786-0 renal
BT-549 breast = test system: BT-549 breast
SK-MEL-2 melanoma = test system: SK-MEL-2 melanoma
DU-145 prostate = test system: DU-145 prostate
UACC-257 melanoma = test system: UACC-257 melanoma
MDA-MB-231 breast = test system: MDA-MB-231 breast
UO-31 renal = test system: UO-31 renal
MALME-3M melanoma = test system: MALME-3M melanoma
CCRF-CEM leukemia = test system: CCRF-CEM leukemia
SK-MEL-5 melanoma = test system: SK-MEL-5 melanoma
IGROV1 ovarian = test system: IGROV1 ovarian
KM12 colon = test system: KM12 colon
HOP-62 NSCLC = test system: HOP-62 NSCLC
NCI-H226 lung = test system: NCI-H226 lung
SNB-19 CNS = test system: SNB-19 CNS
HT29 colon = test system: HT29 colon
COLO 205 colon = test system: COLO 205 colon
MDA-MB-435 = test system: MDA-MB-435
M14 melanoma = test system: M14 melanoma
NCI-H460 lung = test system: NCI-H460 lung
SW-620 colon = test system: SW-620 colon
SNB-75 CNS = test system: SNB-75 CNS
K-562 leukemia = test system: K-562 leukemia
RXF 393 renal = test system: RXF 393 renal
ACHN renal = test system: ACHN renal
PC-3 prostate = test system: PC-3 prostate

Structure (SMILES): O=c1cc(-c2ccccc2)oc2cc(OCCCCNCc3ccccc3)cc(O)c12
- GI50 (CAKI-1 renal): 10.2 µM
- TGI (CAKI-1 renal): 22.3 µM
- GI50 (NCI-H23 lung): 13.8 µM
- TGI (NCI-H23 lung): 27.4 µM
- GI50 (SF-268 CNS): 10.6 µM
- TGI (SF-268 CNS): 27 µM
- GI50 (U251 CNS): 6.11 µM
- TGI (U251 CNS): 19.1 µM
- GI50 (SF-539 CNS): 11.7 µM
- TGI (SF-539 CNS): 25.3 µM
- GI50 (OVCAR-8 ovarian): 12.6 µM
- TGI (OVCAR-8 ovarian): 28.7 µM
- GI50 (SK-MEL-28 melanoma): 3.24 µM
- TGI (SK-MEL-28 melanoma): 9.38 µM
- GI50 (OVCAR-5 ovarian): 19 µM
- TGI (OVCAR-5 ovarian): 35.7 µM
- GI50 (MCF7 breast): 3.43 µM
- TGI (MCF7 breast): 14.9 µM
- GI50 (OVCAR-4 ovarian): 8.92 µM
- TGI (OVCAR-4 ovarian): 23.6 µM
- GI50 (UACC-62 melanoma): 2160 nM
- TGI (UACC-62 melanoma): 4.79 µM
- GI50 (MDA-MB-468 breast): 2550 nM
- TGI (MDA-MB-468 breast): 11.1 µM
- GI50 (HOP-92 NSCLC): 3.73 µM
- TGI (HOP-92 NSCLC): 21.1 µM
- GI50 (HS 578T breast): 11 µM
- TGI (HS 578T breast): 32 µM
- GI50 (T-47D breast): 13.7 µM
- TGI (T-47D breast): 33.1 µM
- GI50 (A498 renal): 19.8 µM
- TGI (A498 renal): 36.8 µM
- GI50 (EKVX NSCLC): 12.7 µM
- TGI (EKVX NSCLC): 25.9 µM
- GI50 (HCT-15 colon): 3.48 µM
- TGI (HCT-15 colon): 12.8 µM
- GI50 (HCT-116 colon): 4.28 µM
- TGI (HCT-116 colon): 17.2 µM
- GI50 (MOLT-4 leukemia): 2120 nM
- TGI (MOLT-4 leukemia): 9.43 µM
- GI50 (SF-295 CNS): 11.7 µM
- TGI (SF-295 CNS): 24.4 µM
- GI50 (A549 NSCLC): 7.94 µM
- TGI (A549 NSCLC): 21.1 µM
- GI50 (SR leukemia): 1790 nM
- TGI (SR leukemia): 4.63 µM
- GI50 (SN12C renal): 12.7 µM
- TGI (SN12C renal): 28 µM
- GI50 (NCI-H522 lung): 13.1 µM
- TGI (NCI-H522 lung): 29.3 µM
- GI50 (SK-OV-3 ovarian): 14.6 µM
- TGI (SK-OV-3 ovarian): 28 µM
- GI50 (HL-60(TB) leukemia): 1120 nM
- TGI (HL-60(TB) leukemia): 3.43 µM
- GI50 (OVCAR-3 ovarian): 12 µM
- TGI (OVCAR-3 ovarian): 25 µM
- GI50 (LOX IMVI melanoma): 3.13 µM
- TGI (LOX IMVI melanoma): 11.2 µM
- GI50 (TK-10 renal): 15.5 µM
- TGI (TK-10 renal): 29.5 µM
- GI50 (RPMI-8226 leukemia): 2250 nM
- TGI (RPMI-8226 leukemia): 6.98 µM
- GI50 (HCC-2998 colon): 2300 nM
- TGI (HCC-2998 colon): 5.74 µM
- GI50 (786-0 renal): 4.54 µM
- TGI (786-0 renal): 18.6 µM
- GI50 (BT-549 breast): 13.2 µM
- TGI (BT-549 breast): 26.7 µM
- GI50 (SK-MEL-2 melanoma): 16.3 µM
- TGI (SK-MEL-2 melanoma): 30.2 µM
- GI50 (DU-145 prostate): 12.2 µM
- TGI (DU-145 prostate): 24.5 µM
- GI50 (UACC-257 melanoma): 2990 nM
- TGI (UACC-257 melanoma): 9.75 µM
- GI50 (MDA-MB-231 breast): 7.02 µM
- TGI (MDA-MB-231 breast): 21.3 µM
- GI50 (UO-31 renal): 6.11 µM
- TGI (UO-31 renal): 21.1 µM
- GI50 (MALME-3M melanoma): 2190 nM
- TGI (MALME-3M melanoma): 7.29 µM
- GI50 (CCRF-CEM leukemia): 2890 nM
- TGI (CCRF-CEM leukemia): 15.8 µM
- GI50 (SK-MEL-5 melanoma): 12.2 µM
- TGI (SK-MEL-5 melanoma): 24.7 µM
- GI50 (IGROV1 ovarian): 11.4 µM
- TGI (IGROV1 ovarian): 26.6 µM
- GI50 (KM12 colon): 5.7 µM
- TGI (KM12 colon): 18.9 µM
- GI50 (HOP-62 NSCLC): 13.2 µM
- TGI (HOP-62 NSCLC): 27.5 µM
- GI50 (NCI-H226 lung): 13.5 µM
- TGI (NCI-H226 lung): 32 µM
- GI50 (SNB-19 CNS): 13.3 µM
- TGI (SNB-19 CNS): 27.9 µM
- GI50 (HT29 colon): 2950 nM
- TGI (HT29 colon): 12 µM
- GI50 (COLO 205 colon): 5.13 µM
- TGI (COLO 205 colon): 18.4 µM
- GI50 (MDA-MB-435): 7.98 µM
- TGI (MDA-MB-435): 20.5 µM
- GI50 (M14 melanoma): 2020 nM
- TGI (M14 melanoma): 4.48 µM
- GI50 (NCI-H460 lung): 4.96 µM
- TGI (NCI-H460 lung): 17.4 µM
- GI50 (SW-620 colon): 10.2 µM
- TGI (SW-620 colon): 23.4 µM
- GI50 (SNB-75 CNS): 10.5 µM
- TGI (SNB-75 CNS): 22.4 µM
- GI50 (K-562 leukemia): 1970 nM
- TGI (K-562 leukemia): 7.35 µM
- GI50 (RXF 393 renal): 1910 nM
- TGI (RXF 393 renal): 10.1 µM
- GI50 (ACHN renal): 12.2 µM
- TGI (ACHN renal): 26.9 µM
- GI50 (PC-3 prostate): 5.01 µM
- TGI (PC-3 prostate): 19.9 µM
